Experiment in all cases: HDAC enzyme inhibition assay
What all share (format): biochemical

The target in test [1] is HDAC2 (Homo sapiens, UniProt Q92769).
For test [2], the target named is HDAC3 (Homo sapiens, UniProt O15379).
Test [3] has as its target T1, HDAC7 (Homo sapiens, UniProt Q8WUI4).
T1 sequence (Q8WUI4 1-952): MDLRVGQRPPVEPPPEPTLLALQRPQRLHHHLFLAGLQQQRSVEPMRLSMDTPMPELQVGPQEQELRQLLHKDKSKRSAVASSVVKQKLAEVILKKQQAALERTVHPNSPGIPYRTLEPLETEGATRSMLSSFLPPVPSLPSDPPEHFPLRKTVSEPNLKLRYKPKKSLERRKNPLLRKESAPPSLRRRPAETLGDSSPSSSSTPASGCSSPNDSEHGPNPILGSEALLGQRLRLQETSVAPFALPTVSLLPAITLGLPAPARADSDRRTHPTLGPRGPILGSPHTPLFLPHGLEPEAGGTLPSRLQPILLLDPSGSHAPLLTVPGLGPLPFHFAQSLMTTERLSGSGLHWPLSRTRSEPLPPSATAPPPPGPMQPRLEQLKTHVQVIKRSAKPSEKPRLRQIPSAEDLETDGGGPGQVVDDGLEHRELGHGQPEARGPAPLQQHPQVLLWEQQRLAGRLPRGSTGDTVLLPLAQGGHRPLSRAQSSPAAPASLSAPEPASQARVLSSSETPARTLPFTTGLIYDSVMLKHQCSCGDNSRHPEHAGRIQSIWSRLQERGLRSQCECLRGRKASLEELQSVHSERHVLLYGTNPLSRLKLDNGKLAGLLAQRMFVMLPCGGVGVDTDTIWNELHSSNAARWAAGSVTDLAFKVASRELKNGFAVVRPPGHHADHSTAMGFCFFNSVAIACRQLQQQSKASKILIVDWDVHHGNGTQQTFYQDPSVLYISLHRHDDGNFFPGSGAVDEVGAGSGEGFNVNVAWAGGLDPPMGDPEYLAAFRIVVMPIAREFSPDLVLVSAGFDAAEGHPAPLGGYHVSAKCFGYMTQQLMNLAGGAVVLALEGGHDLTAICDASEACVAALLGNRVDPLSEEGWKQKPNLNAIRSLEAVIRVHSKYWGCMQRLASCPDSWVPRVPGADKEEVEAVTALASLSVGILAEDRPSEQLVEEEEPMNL

For test [4], the target named is T2, HDAC10 (Homo sapiens, UniProt Q969S8).
T2 sequence (Q969S8 1-669): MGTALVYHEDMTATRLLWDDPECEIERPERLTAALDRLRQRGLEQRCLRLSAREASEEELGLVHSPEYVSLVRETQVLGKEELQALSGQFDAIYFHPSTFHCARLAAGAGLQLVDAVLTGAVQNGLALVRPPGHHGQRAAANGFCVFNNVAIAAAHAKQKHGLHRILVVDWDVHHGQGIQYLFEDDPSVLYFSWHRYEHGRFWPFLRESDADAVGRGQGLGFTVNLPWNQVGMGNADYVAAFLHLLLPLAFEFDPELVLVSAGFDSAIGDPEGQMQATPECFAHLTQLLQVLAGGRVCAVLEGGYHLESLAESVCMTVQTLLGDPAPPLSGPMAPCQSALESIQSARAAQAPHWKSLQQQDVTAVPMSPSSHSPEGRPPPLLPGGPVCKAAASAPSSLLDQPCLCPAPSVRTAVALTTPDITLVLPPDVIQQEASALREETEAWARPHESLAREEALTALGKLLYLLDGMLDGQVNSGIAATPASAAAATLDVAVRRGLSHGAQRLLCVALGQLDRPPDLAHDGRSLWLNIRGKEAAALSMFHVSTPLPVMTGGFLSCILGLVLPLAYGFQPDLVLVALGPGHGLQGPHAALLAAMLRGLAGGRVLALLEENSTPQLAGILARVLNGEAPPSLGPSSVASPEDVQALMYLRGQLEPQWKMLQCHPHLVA

For test [5], the target named is T3, HDAC8 (Homo sapiens, UniProt Q9BY41).
T3 sequence (Q9BY41 1-377): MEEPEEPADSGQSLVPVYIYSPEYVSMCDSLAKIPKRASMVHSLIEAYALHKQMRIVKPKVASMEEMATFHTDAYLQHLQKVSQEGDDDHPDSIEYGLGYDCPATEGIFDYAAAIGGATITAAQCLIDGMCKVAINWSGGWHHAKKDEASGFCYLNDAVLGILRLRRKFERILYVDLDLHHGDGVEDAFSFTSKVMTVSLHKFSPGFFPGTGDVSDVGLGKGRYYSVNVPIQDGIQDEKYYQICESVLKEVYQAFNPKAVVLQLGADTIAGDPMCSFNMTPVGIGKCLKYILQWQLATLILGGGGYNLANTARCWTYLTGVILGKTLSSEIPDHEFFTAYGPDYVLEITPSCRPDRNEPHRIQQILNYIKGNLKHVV

Test [6] concerns the target HDAC4 (Homo sapiens, UniProt P56524).
Test [7] concerns the target HDAC1 (Homo sapiens, UniProt Q13547).
The target in test [8] is HDAC9 (Homo sapiens, UniProt Q9UKV0).
Sequence of HDAC9 (Q9UKV0 whole entry): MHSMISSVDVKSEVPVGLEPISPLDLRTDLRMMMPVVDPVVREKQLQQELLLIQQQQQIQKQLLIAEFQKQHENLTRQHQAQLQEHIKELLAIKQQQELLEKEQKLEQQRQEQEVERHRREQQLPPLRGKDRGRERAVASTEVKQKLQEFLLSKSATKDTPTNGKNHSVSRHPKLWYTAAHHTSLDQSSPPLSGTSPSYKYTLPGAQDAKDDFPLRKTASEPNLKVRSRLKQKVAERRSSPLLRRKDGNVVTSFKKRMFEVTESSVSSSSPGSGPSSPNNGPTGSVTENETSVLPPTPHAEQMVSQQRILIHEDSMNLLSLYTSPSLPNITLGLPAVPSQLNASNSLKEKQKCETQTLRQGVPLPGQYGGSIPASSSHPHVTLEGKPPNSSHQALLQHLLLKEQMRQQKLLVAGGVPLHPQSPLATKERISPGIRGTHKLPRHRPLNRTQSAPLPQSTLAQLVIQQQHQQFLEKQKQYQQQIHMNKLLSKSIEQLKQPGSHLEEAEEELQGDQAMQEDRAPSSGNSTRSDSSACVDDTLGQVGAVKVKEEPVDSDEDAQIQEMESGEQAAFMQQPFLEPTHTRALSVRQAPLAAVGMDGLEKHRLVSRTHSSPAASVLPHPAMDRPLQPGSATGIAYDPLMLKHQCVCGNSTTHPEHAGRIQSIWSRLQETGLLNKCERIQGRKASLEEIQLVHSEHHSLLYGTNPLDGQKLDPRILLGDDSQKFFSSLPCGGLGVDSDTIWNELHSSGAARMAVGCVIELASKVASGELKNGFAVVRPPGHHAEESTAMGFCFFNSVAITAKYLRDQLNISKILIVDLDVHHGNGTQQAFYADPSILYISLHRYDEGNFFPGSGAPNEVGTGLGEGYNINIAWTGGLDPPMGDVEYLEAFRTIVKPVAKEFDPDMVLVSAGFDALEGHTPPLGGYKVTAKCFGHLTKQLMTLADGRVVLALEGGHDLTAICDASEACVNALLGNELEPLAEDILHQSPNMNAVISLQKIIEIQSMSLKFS

Sequence of HDAC3 (O15379 whole entry): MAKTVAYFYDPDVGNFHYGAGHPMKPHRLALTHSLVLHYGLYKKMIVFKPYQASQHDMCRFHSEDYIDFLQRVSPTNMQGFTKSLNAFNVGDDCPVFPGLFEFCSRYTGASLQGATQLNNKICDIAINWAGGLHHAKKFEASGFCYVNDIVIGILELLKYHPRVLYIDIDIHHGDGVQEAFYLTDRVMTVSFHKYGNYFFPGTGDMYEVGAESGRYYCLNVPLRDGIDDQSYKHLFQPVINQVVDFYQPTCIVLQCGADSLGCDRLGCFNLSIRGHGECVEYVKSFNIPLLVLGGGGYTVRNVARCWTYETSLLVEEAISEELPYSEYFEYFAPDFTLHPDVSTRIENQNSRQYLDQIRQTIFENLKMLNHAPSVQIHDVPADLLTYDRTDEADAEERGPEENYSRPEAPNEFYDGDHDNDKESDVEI
Sequence of HDAC3 (Q9Y618 395-489 partner limits assumed): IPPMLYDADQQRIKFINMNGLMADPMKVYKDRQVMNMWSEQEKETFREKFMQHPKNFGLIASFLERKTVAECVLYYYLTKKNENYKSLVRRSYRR
Sequence of HDAC1 (Q13547 whole entry): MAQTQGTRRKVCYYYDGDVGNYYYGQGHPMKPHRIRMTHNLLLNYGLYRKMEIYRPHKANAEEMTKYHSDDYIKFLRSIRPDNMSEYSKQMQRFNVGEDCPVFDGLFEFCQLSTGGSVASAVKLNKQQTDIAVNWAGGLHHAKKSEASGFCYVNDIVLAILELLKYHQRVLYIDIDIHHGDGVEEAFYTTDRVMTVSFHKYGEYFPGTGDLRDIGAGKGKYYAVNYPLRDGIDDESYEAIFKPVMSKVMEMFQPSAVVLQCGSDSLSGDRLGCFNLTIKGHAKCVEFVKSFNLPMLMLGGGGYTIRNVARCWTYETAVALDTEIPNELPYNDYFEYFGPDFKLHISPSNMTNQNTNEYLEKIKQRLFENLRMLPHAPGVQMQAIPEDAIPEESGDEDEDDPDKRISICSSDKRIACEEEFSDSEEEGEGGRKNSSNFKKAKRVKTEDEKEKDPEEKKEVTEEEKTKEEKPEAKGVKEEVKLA
Sequence of HDAC4 (P56524 whole entry): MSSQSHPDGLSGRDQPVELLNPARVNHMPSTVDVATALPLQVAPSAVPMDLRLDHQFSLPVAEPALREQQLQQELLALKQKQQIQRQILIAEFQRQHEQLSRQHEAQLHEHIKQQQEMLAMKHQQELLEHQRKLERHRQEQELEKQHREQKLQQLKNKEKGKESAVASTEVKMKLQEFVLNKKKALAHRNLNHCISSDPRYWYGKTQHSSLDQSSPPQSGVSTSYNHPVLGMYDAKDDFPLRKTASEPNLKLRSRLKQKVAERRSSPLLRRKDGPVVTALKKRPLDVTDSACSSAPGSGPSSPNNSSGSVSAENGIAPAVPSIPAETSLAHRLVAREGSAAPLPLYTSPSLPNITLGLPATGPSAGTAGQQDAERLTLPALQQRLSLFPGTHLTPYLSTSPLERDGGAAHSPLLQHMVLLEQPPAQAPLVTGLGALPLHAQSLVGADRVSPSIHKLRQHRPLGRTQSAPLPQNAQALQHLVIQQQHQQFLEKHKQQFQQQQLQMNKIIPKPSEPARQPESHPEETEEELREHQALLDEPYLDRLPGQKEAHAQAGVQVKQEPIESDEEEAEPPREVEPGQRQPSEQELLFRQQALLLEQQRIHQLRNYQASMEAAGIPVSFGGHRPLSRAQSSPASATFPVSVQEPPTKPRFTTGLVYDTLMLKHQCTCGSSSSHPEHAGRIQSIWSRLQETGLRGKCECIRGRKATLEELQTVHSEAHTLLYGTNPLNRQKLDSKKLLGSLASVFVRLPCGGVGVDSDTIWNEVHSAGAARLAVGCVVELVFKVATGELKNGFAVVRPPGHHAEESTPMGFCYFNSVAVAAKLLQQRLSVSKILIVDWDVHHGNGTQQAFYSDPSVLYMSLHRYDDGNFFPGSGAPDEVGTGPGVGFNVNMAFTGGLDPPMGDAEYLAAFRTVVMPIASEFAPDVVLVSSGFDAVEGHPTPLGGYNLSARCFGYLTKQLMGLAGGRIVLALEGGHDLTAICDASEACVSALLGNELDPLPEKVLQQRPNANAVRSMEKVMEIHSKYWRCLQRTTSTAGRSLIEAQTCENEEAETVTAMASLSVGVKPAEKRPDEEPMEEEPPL
Sequence of HDAC2 (Q92769 whole entry): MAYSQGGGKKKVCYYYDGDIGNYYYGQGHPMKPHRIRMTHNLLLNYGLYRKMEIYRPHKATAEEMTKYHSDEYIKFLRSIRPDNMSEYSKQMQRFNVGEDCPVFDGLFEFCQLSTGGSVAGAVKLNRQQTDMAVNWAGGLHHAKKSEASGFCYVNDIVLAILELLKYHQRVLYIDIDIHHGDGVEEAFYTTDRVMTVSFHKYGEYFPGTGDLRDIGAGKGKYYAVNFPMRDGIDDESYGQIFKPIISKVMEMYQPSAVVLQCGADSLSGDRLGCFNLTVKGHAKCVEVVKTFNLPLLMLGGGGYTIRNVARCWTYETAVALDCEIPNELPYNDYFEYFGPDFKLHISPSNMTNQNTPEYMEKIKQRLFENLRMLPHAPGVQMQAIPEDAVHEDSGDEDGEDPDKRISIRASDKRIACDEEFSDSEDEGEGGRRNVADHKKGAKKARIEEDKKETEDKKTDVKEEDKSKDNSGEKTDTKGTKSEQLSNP

The IC50 is the point on the concentration scale where inhibition reaches its midpoint. As to `COc1cc(C(=O)NO)ccc1CN1CCCCc2ccccc21` [15a, N-Hydroxy-3-methoxy-4-((2,3,4,5-tetrahydro-1H-benzo[b]azepin-1-yl)methyl)benzamide], the IC50 in test [1], in test [2], in test [3], in test [4], in test [5] and in test [6] was above 10 µM each time. Further, the half-maximal inhibitory concentration (IC50) in test [7] and in test [8] was above 10 µM throughout.

As for `O=C(NO)c1ccc(CN2CCCCc3ccccc32)c(F)c1` [15c, 3-Fluoro-N-hydroxy-4-((2,3,4,5-tetrahydro-1H-benzo[b]azepin-1-yl)methyl)benzamide], the IC50 in test [1] is above 10 µM; in test [2], 2.96 µM; in test [3] it was 0.609 µM; in test [4], 8.96 µM; in test [5], 1.68 µM; in test [6], 2.12 µM. In addition, the IC50 in test [7] was 7.82 µM; in test [8] it was 3.15 µM.

For `O=C(NO)c1ccc(CN2CCCCc3ccccc32)cc1F` [15d, 2-Fluoro-N-hydroxy-4-((2,3,4,5-tetrahydro-1H-benzo[b]azepin-1-yl)methyl)benzamide], the IC50 in test [1] was above 10 µM; in test [2], 2.46 µM; in test [3] it was 3.02 µM; in test [4], above 10 µM; in test [5], 9.11 µM; in test [6], 3.56 µM. Besides, the IC50 in test [7] and in test [8] was above 10 µM in each case.

The values are drawn from paper PMC9532562 (Acta Pharmaceutica Sinica. B, 2022).
